The text below walks through data of patent US10702498B2 (priority 2015, dated 2020).

Entries after “also recorded” stand apart in the source; their conditions may differ. A value given as a limit tells only on which side of the number the result lay.

The term Ki denotes the dissociation constant of the complex between target and ligand, obtained from inhibition or displacement. A high value points to weaker binding.

The test system of series [1] is mice. Briefly: Conditioned place preference. Type of series: in vivo. To be noted: mouse. How it is done:
On day 1 (preconditioning day), mice were placed in the central chamber and allowed to explore freely for 30 minutes. Time spent in each compartment was used to estimate baseline chamber preferences and mice showing specific chamber bias more than 70% were not studied further. On days 2-9 (conditioning days) mice were injected with either vehicle or drug and paired with either the white mesh or the black rod chambers. All mice received vehicle on days 2, 4, 6, 8 and drug on days 3, 5, 7, 9. On day 10 (test day), mice were again placed in the central chamber as on day 1 and allowed to explore freely for 30 minutes. Time spent in each chamber was expressed as percentage preference.

The next series has as its target nociceptin receptor (Homo sapiens (Human), UniProt P41146). Nature of the series: Gi/o Glosensor assay.
Series [2] has as its system mice. Nature of the series: Formalin injection assay. Type of series: in vivo. To be noted: mouse.
A further series has as its target hMOR + Gqi5 (Homo sapiens (Human), UniProt P35372). Briefly: IP accumulation assay. It counts as cell-based. The following applies: % morphine.
The test system of series [3] is C57BL/6J mice. Briefly: Tail-flick assay. Type of series: in vivo. The following applies: mouse. For orientation: In hot-plate and tail-flick tests a longer latency is read as antinociception.
Another series concerns 316 other GPCRs. Briefly: PRESTO-Tango GPCRome β-arrestin recruitment counter-screen. Type of series: cell-based. The following applies: 10 μM screen, hits re-tested in full dose-response. The source says: Potential positive receptor hits were defined as those that increase the relative luminescence value by two fold. […] A number of false positive hits were discounted by this approach.
On the technique in general: Recruitment of arrestin is a read-out of receptor activation apart from second messengers.

A further series addresses hKOR (Homo sapiens (Human), UniProt P41145). Briefly: Receptor binding, [3H]diprenorphine. To be noted: hKOR [3H]dyprenorphine Ki.
Series [4] has as its system mice. Nature of the series: Open field locomotor response. The following applies: mouse.
A further series has as its target humanDOR (Homo sapiens (Human), UniProt P41143). Nature of the series: Receptor binding, [3H]diprenorphine.
Series [5] concerns the target T1, μOR (Homo sapiens (Human), UniProt P35372). Nature of the series: Receptor internalization (PathHunter GPCR internalization, U2OS cells). It counts as cell-based.
The test system of series [6] is mice. Nature of the series: Accumulated fecal boli quantification (constipation). The following applies: mouse.
The subject of series [7] is Oprm1−/− and wild-type C57Bl/6J mice. Briefly: Hot-plate: affective/reflexive subcategorization and μOR knockout mice. Type of series: in vivo, mouse.
A further series has as its target δOR (Homo sapiens (Human), UniProt P41143). Nature of the series: Gi/o Glosensor assay.
For series [8], the target named is human μOR β-arrestin2 recruitment + GRK2 (Homo sapiens (Human), UniProt P35372). Nature of the series: β-Arrestin2 recruitment with GRK2 co-expression (BRET). It counts as cell-based.
In series [9] the target is T1, μOR. Nature of the series: Calcium release (FLIPR). Type of series: cell-based. On the procedure: Calcium release was measured using a FLIPR^TETRA fluorescence imaging plate reader (Molecular Devices). Calcium release experiments were run in parallel to Gi/o Glosensor experiments with the same HEKT cells transfected with μOR, except cells for FLIPR were plated in poly-lysine coated 384-well black clear bottom cell culture plates. […] Dye was incubated for 1 hour at 37° C. Afterwards, cells were equilibrated to room temperature, and fluorescence in each well was read for the initial 10 seconds to establish a baseline. Afterwards, 10 μL of drug (3×) was added per well and the maximum-fold increase in fluorescence was determined as fold-over-baseline. Drug solutions used for the FLIPR assay were exactly the same as used for Gi/o Glosensor experiments. To activate endogenous Gq-coupled receptors as a positive control for calcium release, TFLLR-NH2 (10 μM, PAR-1 selective agonist) was used.

The next series has as its target κOR (Homo sapiens (Human), UniProt P41145). Briefly: Gi/o Glosensor assay (agonist and antagonist mode).
For series [10], the system named is mice. Briefly: Catalepsy bar test. The following applies: mouse.
Series [11] deals with T1, μOR. Briefly: cell-based. Type of series: cell-based.
Series [12] has as its system μOR Gi/o versus β-arrestin signaling. Briefly: Ligand bias calculation (operational model).
The target in series [13] is T2, μOR β-arrestin2 recruitment (Homo sapiens (Human), UniProt P35372). Briefly: β-Arrestin recruitment, PathHunter enzyme complementation assay (DiscoveRx OPRM1 CHO-K1). It counts as cell-based.
Series [14] can be described thus: Pharmacokinetics: serum and brain concentrations. The following applies: mouse. It counts as in vivo. On the procedure:
Studies were performed by the Preclinical Therapeutics Core and the Drug Studies Unit at the University of California San Francisco. […] All studies were performed with approved mouse protocols from the institutional animal care and use committees.

The target in series [15] is T2, μOR β-arrestin2 recruitment. Briefly: β-Arrestin2 recruitment without GRK2 co-expression (BRET). Type of series: cell-based.
Series [16] concerns C57BL/6J mice. Briefly: Hot-plate analgesia assay. It counts as in vivo. The following applies: mouse.
Series [17] addresses T1, μOR. Nature of the series: biochemical. It counts as binding.
Series [18] deals with T1, μOR. The following applies: no Ki given.

T1 sequence (P35372 whole entry): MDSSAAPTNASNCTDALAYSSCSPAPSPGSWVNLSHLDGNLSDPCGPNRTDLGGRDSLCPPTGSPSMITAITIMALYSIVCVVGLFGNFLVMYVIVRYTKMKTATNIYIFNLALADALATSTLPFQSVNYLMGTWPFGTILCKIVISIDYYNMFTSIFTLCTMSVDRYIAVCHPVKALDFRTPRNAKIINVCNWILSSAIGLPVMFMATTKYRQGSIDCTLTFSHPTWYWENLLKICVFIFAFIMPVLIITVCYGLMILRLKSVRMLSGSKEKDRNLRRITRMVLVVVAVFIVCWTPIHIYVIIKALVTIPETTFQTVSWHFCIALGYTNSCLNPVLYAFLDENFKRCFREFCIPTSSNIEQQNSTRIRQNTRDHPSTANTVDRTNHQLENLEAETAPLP
humanDOR, sequence (P41143 whole entry): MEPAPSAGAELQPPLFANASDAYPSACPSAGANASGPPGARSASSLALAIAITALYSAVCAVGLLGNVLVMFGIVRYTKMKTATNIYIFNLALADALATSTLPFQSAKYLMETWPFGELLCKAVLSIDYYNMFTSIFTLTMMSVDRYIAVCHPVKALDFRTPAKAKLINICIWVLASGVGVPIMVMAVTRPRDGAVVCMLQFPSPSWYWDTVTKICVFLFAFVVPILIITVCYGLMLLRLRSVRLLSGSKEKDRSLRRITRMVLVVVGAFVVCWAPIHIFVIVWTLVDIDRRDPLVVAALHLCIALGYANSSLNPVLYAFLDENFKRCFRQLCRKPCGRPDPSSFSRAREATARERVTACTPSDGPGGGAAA
hKOR, sequence (P41145 whole entry): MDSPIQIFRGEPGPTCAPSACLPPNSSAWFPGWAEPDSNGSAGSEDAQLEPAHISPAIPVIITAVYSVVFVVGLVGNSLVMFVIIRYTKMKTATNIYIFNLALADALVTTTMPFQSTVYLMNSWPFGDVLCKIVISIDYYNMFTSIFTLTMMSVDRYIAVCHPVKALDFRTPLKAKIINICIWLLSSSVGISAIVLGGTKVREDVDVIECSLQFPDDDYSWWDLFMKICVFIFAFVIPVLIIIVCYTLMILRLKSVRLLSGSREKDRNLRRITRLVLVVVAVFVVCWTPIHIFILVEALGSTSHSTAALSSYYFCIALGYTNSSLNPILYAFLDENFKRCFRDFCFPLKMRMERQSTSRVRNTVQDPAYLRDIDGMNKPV

Regarding `C[C@@H](Cc1ccsc1)NC(=O)NC[C@H](Cc1ccc(O)cc1)N(C)C` [PZM21, 1-[(S)-2-(Dimethylamino)-3-(4-hydroxyphenyl)propyl]-3-((S)-1-(thiophen-3-yl)propan-2-yl)urea], in the series with mice [1], the “conditioned place preference” value is listed as “does not induce a conditioned place preference response”. On nociceptin receptor, the “nociceptin receptor agonist activity” value is “no detectable KOR or nociceptin receptor agonist activity”. The “formalin injection nociception” value in the series with mice [2] was “active in a formalin injection nociception assay”. Further, the “hMOR + Gqi5 IP accumulation assay efficacy a” value at hMOR + Gqi5 is “a: 73%”. Besides, the “tail-flick analgesia” value in the series with C57BL/6J mice [3] is “no activity in a tail flick assay; also recorded: no analgesic effect”. Besides, the “agonism against 316 other GPCRs” value in the series with 316 other GPCRs is reported as “no potent activity was confirmed with a full dose-response experiment”. Moreover, the inhibition constant (Ki) at hKOR came to 33 ± 5.6 nM. In addition, the “open field locomotion” value with mice [4] was “does not induce open field locomotion; also recorded: no apparent effect on locomotion versus vehicle”. Besides, at humanDOR, the affinity corresponds to a Ki of 470 ± 98 nM. The “μOR internalization” value on μOR [5] was “minimal level of μOR internalization compared to DAMGO and morphine”. Moreover, the “constipation effect / defecation” value in the series with mice [6] is “reduced constipatory effects as compared to morphine; also recorded: substantially less than morphine”. Besides, the “analgesia in μOR knockout mice” value in series [7] (hot-plate) is recorded as “genetic knockout of the μOR completely ablates the observed analgesic response”. For the same compound, in series [7] (mouse hot-plate), the “affective versus reflexive component of pain” value is recorded as “only modulates the affective component of pain; also recorded: solely confers analgesia to the affective component of pain”. Further, the Emax on δOR (read-out: Gi/o (Glosensor) Emax (%) δOR) amounted to 78%. Further, the “weaker δOR agonist than μOR agonist” value on δOR (selectivity) is 500 fold. In addition, the “arrestin recruitment with over-expressed GRK2” value in [8] was “weak arrestin recruitment efficacy compared to DAMGO and even to morphine; also recorded: we observe arrestin recruitment”. Also, on μOR [9], the “calcium release” value was “no activity was observed in a calcium release assay”. For the same compound, at κOR, the “activity at KOR (antagonist mode, words)” value is on record as “antagonist at KOR” and the “κOR agonist activity” value is “no detectable KOR or nociceptin receptor agonist activity; also recorded: lack of agonist activity”. Moreover, the “cataleptic effect” value with mice [10] is given as “does not induce cataleptic behavior; also recorded: does not reflect a cataleptic effect”. Moreover, on μOR [11], the “Gi/o activation / μOR agonist activity” value was “robust μOR agonist activity” and the “effect on cAMP levels with pertussis toxin” value is “eliminated by pertussis toxin”. Also, the “signaling bias” value in series [12] is reported as “undistinguishable from TRV130; also recorded: substantially exceeded that of herkinorin”. In addition, the “β-arrestin2 recruitment in PathHunter assay” value in series [13] is reported as “undetectable β-arrestin2 recruitment; also recorded: minimal recruitment of β-arrestin2; also recorded: no detectable 3-arrestin2 recruitment”. Also, the “blood brain barrier penetration” value in series [14] is “substantial fraction of PZM21 crosses the blood brain barrier”. Besides, the “β-arrestin2 recruitment in the absence of GRK2” value in [15] is reported as “no β-arrestin2 recruitment”. Also, the “hot-plate analgesia” value in the series with C57BL/6J mice [16] (s.c.) was “dose-dependent analgesia”. In the series on C57BL/6J mice [16] (15 minutes after the highest dose tested), the “hot-plate percent maximal possible effect (% MPE)” value came to 87%.
On μOR [17], `CCN1CCC[C@@H](NC(=O)NCCc2ccc(OC(C)C)cc2)C1` [compound 6] gave a Ki of 10000 nM.
Regarding `O=C(Cc1cn2ccccc2n1)NCC1(c2ccccc2)CCC1` [compound 9], on μOR [18], the “μOR binding, given as <50%” value is given as below 50%.
